Assay results published in PMC6382696, “Drug Repurposing: The Anthelmintics Niclosamide and Nitazoxanide Are Potent TMEM16A Antagonists That Fully Bronchodilate Airways” (Frontiers in Pharmacology, 2019).
pIC50: −log10 of the molar value. Like-named read-outs stand apart in the source and are kept apart here.

Key:
primary human ASM cells = experiment: Eact-induced calcium flux in primary human ASM cells; type: cell-based; settings: Eact 10 M (so in the source), read-out: IC50 block of Eact calcium flux
Description: 1.1 Measuring antagonist effects on bronchial smooth muscle cell (BSMC) pro-contractile calcium flux.
Human BSMCs were obtained from Lonza, resuspended, cultured and serum starved for 24 hours as described for the histamine membrane potential assay. Compounds and dilutions were prepared in same manner, except they were serially diluted in Assay Buffer (2 mM CaCl2, 1 mM MgCl2, 4.5 mM KCl, 155 mM NaCl, 5 mM HEPES, 10 mM glucose, pH7.4) to 4X the final concentration. A Calcium Indicator Working Solution (10 ml) was prepared by adding 1ml BD PBX Signal Enhancer (Cat# 51 -9006254) and 10 µl of BD Calcium Indicator (BD Cat# 850000 resuspended in 100% DMSO) to 9 ml Assay Buffer. Following serum starvation of the BSMCs, culture media was aspirated off and 50µl of Calcium Indicator Working Solution was added t o each well of microtiter plate. Twenty-five microliters of the 4X serially diluted compounds were then added and cells were incubated with compounds for 30 minutes at room temperature. Twenty -five microliters of a 4X histamine or methacholine solution (where 1X reflects EC 80-EC100 concentration from earlier validation of aliquot of cells from same donor) was then added and fluorescence changes were measured by a FLIPR-Tetra or internal FlashFluor instrument. In some experiments the TMEM16A opener, Eact, was used in place of histamine or methacholine.

[1] = tested on: Wnt/β-catenin transcription; settings: cited from earlier work
COLO205 cells = experiment: QPatch electrophysiology of endogenous calcium-activated chloride current in COLO205 cells; type: cell-based, human; settings: 170 nM free calcium
Description: HEK293 cells stably expressing the TMEM16A (acd) variant were purchased from SB Drug Discovery. The HEK293 TMEM16A (abc) stable cell line was from ChanTest and COLO-205 cells were purchased from ATCC. The same standard buffers and recording conditions listed below were used for QPatch studies on all three cell lines.
Recording Solutions: were made weekly as below and stored at room temperature until used. It is recommended not to add ATP to internal solution until immediately before using on the QPatch. The external buffer (in mM) was 140 NaCl, 4 KCl, 2 CaCl2, 1 MgCl2, 10 HEPES, 10 Glucose, pH7.4, while the internal buffer (in mM) was 110 CsCl, 20 TEA-Cl, 5.374 CaCl2, 1.75 MgCl2, 10 EGTA, 10 HEPES, 4 Na2ATP, pH 7.2.
Once established in whole-cell configuration, cells were clamped to a holding potential (Vhold) of 0 mV on 48 well single hole patch plate. A standardized IV protocol was used to elicit ionic current through the TMEM16A chloride channel at 20 s intervals. Steady-state voltage pulses were from −100 mV to +100 mV in +20 mV steps for a duration of 500 ms. After each pulse the voltage was returned to −100 mV for 50 ms to obtain tail currents, and then returned to the holding potential of 0 mV until the beginning of the next sweep. Block of TMEM16A chloride current due to test article was measured at the +100 mV depolarization sweep of the third and final IV protocol run per concentration addition. This ensures a minimum of 60 s per concentration incubation before measuring current block. Currents were acquired at 10 kHz and filtered at 2 kHz, leak subtraction and Rseries were disabled. […]
A cumulative concentration response was measured where each cell is exposed to five concentrations of test article with a dilution factor of 1:5 (e.g., 0.048, 0.24, 1.2, 6, and 30 μM). Cells were recorded for ∼60 s per solution/compound addition. […] Recovery/washout was monitored for a final minute with a final external solution addition.
Peak outward current magnitude at 540 ms through 550 ms of the IV step was measured for each sweep at […]. […]

[2] = ref Mook et al. (2015), read-out: Mook et al. Wnt/β-catenin TopFlash (IC50)

| SMILES | pIC50 (primary human ASM cells) | block of native chloride current in COLO205 cells (COLO205 cells) | further results |
| --- | --- | --- | --- |
| Oc1ccc(Cl)cc1Cc1cc(Cl)ccc1O [Dichlorophen] | 4.24 | – | – |
| O=C(Nc1ccc(Cl)cc1)c1cc(Cl)ccc1O [Cpd 5] | – | – | pIC50 [1, 2]: 5.89 |
| N#Cc1c(C(F)(F)F)cc(O)n2c1nc1ccccc12 [1PBC] | – | fully blocked | – |
| CCc1c(C)nc(SCC(=O)Nc2nc(-c3ccc(OC)cc3)cs2)[nH]c1=O [T16Ainh-A01] | 4.82 | – | – |
| O=C(Nc1ccc([N+](=O)[O-])cc1Cl)c1cc(Cl)ccc1O [Niclosamide] | – | – | pIC50 ([1]; TOPFlash reporter assay, ref Mook et al., 2015, read-out: IC50 inhibition of Wnt/β-catenin transcription): 6.47 |
| O=C(Nc1ccc([N+](=O)[O-])cc1)c1cc(Cl)ccc1O [Cpd 2] | – | – | pIC50 [1, 2]: 6.00 |
| CC(C)(C)C1CCc2c(sc(NC(=O)c3ccco3)c2C(=O)O)C1 (stereo not shown) [CaCCinh-A01] | 5.15 | fully blocked | – |
| CCc1oc2ccccc2c1C(=O)c1cc(Br)c(O)c(Br)c1 [Benzbromarone] | 5.70 | fully blocked | – |
